Results as given in PubChem BioAssay (NCI).
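GI50 = concentration required for 50% inhibition of growth. At the TGI there is no net growth.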

Experiments:
Assay in all cases: DTP human tumour cell line panel, 384-well format
[1] = system: SNB-75 CNS
[2] = system: NCI-H322M lung
[3] = system: HT29 colon
[4] = system: DU-145 prostate
[5] = system: SK-MEL-2 melanoma
[6] = system: BT-549 breast
[7] = system: SW-620 colon
[8] = system: M14 melanoma
[9] = system: HCT-15 colon
[10] = system: SR leukemia
[11] = system: OVCAR-8 ovarian
[12] = system: SNB-19 CNS
[13] = system: NCI-H522 lung
[14] = system: MOLT-4 leukemia
[15] = system: NCI-H226 lung
[16] = system: RXF 393 renal
[17] = system: HOP-62 NSCLC
[18] = system: CAKI-1 renal
[19] = system: MCF7 breast
[20] = system: SF-268 CNS
[21] = system: COLO 205 colon
[22] = system: RPMI-8226 leukemia
[23] = system: SK-MEL-28 melanoma
[24] = system: IGROV1 ovarian
[25] = system: HL-60(TB) leukemia
[26] = system: TK-10 renal
[27] = system: KM12 colon
[28] = system: HS 578T breast
[29] = system: A549 NSCLC
[30] = system: SF-295 CNS
[31] = system: 786-0 renal
[32] = system: SK-MEL-5 melanoma
[33] = system: MALME-3M melanoma
[34] = system: MDA-MB-468 breast
[35] = system: UACC-257 melanoma
[36] = system: SN12C renal
[37] = system: HCC-2998 colon
[38] = system: OVCAR-3 ovarian
[39] = system: SF-539 CNS
[40] = system: OVCAR-5 ovarian
[41] = system: HOP-92 NSCLC
[42] = system: A498 renal
[43] = system: MDA-MB-231 breast
[44] = system: NCI/ADR-RES ovarian
[45] = system: SK-OV-3 ovarian
[46] = system: UACC-62 melanoma
[47] = system: CCRF-CEM leukemia
[48] = system: NCI-H460 NSCLC
[49] = system: OVCAR-4 ovarian
[50] = system: NCI-H23 lung
[51] = system: EKVX NSCLC
[52] = system: MDA-MB-435 melanoma
[53] = system: ACHN renal
[54] = system: T-47D breast
[55] = system: PC-3 prostate
[56] = system: U251 glioblastoma

CN(C)CCNC(=O)c1cccc2cc3ccccc3nc12
GI50 [1]: 806 nM
TGI [1]: 2130 nM
GI50 [2]: 1740 nM
TGI [2]: 3530 nM
GI50 [3]: 996 nM
TGI [3]: 2210 nM
GI50 [4]: 1520 nM
TGI [4]: 3120 nM
GI50 [5]: 3280 nM
TGI [5]: 4780 nM
GI50 [6]: 532 nM
TGI [6]: 1680 nM
GI50 [7]: 718 nM
TGI [7]: 1990 nM
GI50 [8]: 1140 nM
TGI [8]: 2380 nM
GI50 [9]: 628 nM
TGI [9]: 2020 nM
GI50 [10]: 198 nM
TGI [10]: 349 nM
GI50 [11]: 611 nM
TGI [11]: 1840 nM
GI50 [12]: 784 nM
TGI [12]: 2690 nM
GI50 [13]: 1240 nM
TGI [13]: 2510 nM
GI50 [14]: 169 nM
TGI [14]: 310 nM
GI50 [15]: 898 nM
TGI [15]: 2440 nM
GI50 [16]: 1120 nM
TGI [16]: 2360 nM
GI50 [17]: 494 nM
TGI [17]: 1850 nM
GI50 [18]: 1020 nM
TGI [18]: 2490 nM
GI50 [19]: 1120 nM
TGI [19]: 4170 nM
GI50 [20]: 1150 nM
TGI [20]: 2470 nM
GI50 [21]: 336 nM
TGI [21]: 651 nM
GI50 [22]: 506 nM
TGI [22]: 1490 nM
GI50 [23]: 1620 nM
TGI [23]: 3010 nM
GI50 [24]: 1140 nM
TGI [24]: 2460 nM
GI50 [25]: 252 nM
TGI [25]: 462 nM
GI50 [26]: 1250 nM
TGI [26]: 2950 nM
GI50 [27]: 862 nM
TGI [27]: 2440 nM
GI50 [28]: 287 nM
TGI [28]: 883 nM
GI50 [29]: 619 nM
TGI [29]: 1900 nM
GI50 [30]: 974 nM
TGI [30]: 2380 nM
GI50 [31]: 1070 nM
TGI [31]: 3040 nM
GI50 [32]: 1180 nM
TGI [32]: 2420 nM
GI50 [33]: 932 nM
TGI [33]: 2110 nM
GI50 [34]: 411 nM
TGI [34]: 791 nM
GI50 [35]: 1650 nM
TGI [35]: 3050 nM
GI50 [36]: 1260 nM
TGI [36]: 2740 nM
GI50 [37]: 1460 nM
TGI [37]: 2860 nM
GI50 [38]: 1340 nM
TGI [38]: 2810 nM
GI50 [39]: 449 nM
TGI [39]: 1510 nM
GI50 [40]: 1440 nM
TGI [40]: 3690 nM
GI50 [41]: 688 nM
TGI [41]: 2150 nM
GI50 [42]: 539 nM
TGI [42]: 2000 nM
GI50 [43]: 958 nM
TGI [43]: 2220 nM
GI50 [44]: 876 nM
TGI [44]: 2270 nM
GI50 [45]: 1200 nM
TGI [45]: 3290 nM
GI50 [46]: 1000 nM
TGI [46]: 2200 nM
GI50 [47]: 246 nM
TGI [47]: 673 nM
GI50 [48]: 375 nM
TGI [48]: 1250 nM
GI50 [49]: 1790 nM
TGI [49]: 3610 nM
GI50 [50]: 1260 nM
TGI [50]: 2570 nM
GI50 [51]: 1740 nM
TGI [51]: 3670 nM
GI50 [52]: 1640 nM
TGI [52]: 3230 nM
GI50 [53]: 961 nM
TGI [53]: 2280 nM
GI50 [54]: 2050 nM
TGI [54]: 4090 nM
GI50 [55]: 1460 nM
TGI [55]: 3290 nM
GI50 [56]: 741 nM
TGI [56]: 2680 nM
